Each compound was assayed against T1, androgen receptor (AR-LBD) (Rattus norvegicus, UniProt P15207) (assay: Evaluation of androgen receptor affinity (PolarScreen Androgen Receptor Competitor Assay Kit, Red; fluorescence polarization)). Conditions: 22° C. for 5 hours, relative to binding rate of 1 μM DHT, read-out: AR affinity (pEC50) (converted).
T1 construct: 5 μL of 2×AR-LBD/Fluoromone AL Red Complex contained in the kit; purchased Invitrogen
T1 sequence (P15207 651-882 limits assumed): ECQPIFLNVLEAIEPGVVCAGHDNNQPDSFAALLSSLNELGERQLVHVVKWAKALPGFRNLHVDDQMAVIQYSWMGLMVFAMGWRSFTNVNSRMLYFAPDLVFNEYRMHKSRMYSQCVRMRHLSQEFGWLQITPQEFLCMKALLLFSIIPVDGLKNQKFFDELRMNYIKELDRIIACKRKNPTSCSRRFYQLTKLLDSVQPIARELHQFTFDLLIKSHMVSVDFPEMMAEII
Description: Evaluation of an Androgen Receptor Affinity
To examine the interaction of a compound with an androgen receptor, evaluation was carried out in accordance with the following procedure using PolarScreen™ Androgen Receptor Competitor Assay Kit, Red (Invitrogen). To 2 wells each of a 384 well black plate was added 5 μL of the compound solution. To each well was added 5 μL of 2×AR-LBD/Fluoromone AL Red Complex contained in the kit and the samples were reacted at 22° C. for 5 hours. After 5 hours of the reaction, fluorescence polarization was measured and the affinity was evaluated. The affinity of the compound was determined by comparing to the binding rate of 1 μM of dihydrotestosterone (DHT), and quantified the logarithm value (pEC50) of reciprocal value of the effective concentration of the compound which is equal to 50% of the binding rate by applying a 4 parameter goodness-of-fit calculation.

Structure (SMILES) | EC50
COC(C)(C)CCN(c1ccc(C#N)cc1)c1nc(C(=O)NS(C)(=O)=O)c(C)s1 [Compound 444, 2-(4-cyano-N-(3-methoxy-3-methyl-butyl)anilino)-5-methyl-N-methylsulfonyl-thiazole-4-carboxamide] | 1260 nM
COCCOc1cccc(N(Cc2ccccc2)c2nc(C(=O)NS(C)(=O)=O)c(C)s2)c1 [Compound 398, 2-[N-benzyl-3-(2-methoxyethoxy)anilino]-5-methyl-N-methylsulfonyl-thiazole-4-carboxamide] | > 2000 nM
CC[C@H](C)CN(c1ccc(C#N)cc1)c1nc(C(=O)NS(C)(=O)=O)c(C)s1 [Compound 446, 2-(4-cyano-N-[(2S)-2-methylbutyl]anilino)-5-methyl-N-methylsulfonyl-thiazole-4-carboxamide] | 316 nM
Cc1sc(N(CC2CCCOC2)c2ccc(C#N)cc2)nc1C(=O)NS(C)(=O)=O (centres unmarked) [Compound 120, 2-[4-cyano-N-(tetrahydropyran-3-ylmethyl)anilino]-5-methyl-N-methylsulfonyl-thiazole-4-carboxamide] | > 2000 nM
CCC(c1ccccc1)N(c1ccc(C#N)cc1)c1nc(C(=O)NS(C)(=O)=O)c(C)s1 (centres unmarked) [Compound 84, 2-[4-cyano-N-(1-phenylpropyl)anilino]-5-methyl-N-methylsulfonyl-thiazole-4-carboxamide] | > 2000 nM
Cc1sc(N(Cc2ccccc2OC(F)(F)F)c2ccc(C#N)cc2)nc1C(=O)NS(C)(=O)=O [Compound 101, 2-[4-cyano-N-[[2-(trifluoromethoxy)phenyl]methyl]anilino]-5-methyl-N-methylsulfonyl-thiazole-4-carboxamide] | 631 nM
Cc1sc(N(Cc2nc3ccccc3[nH]2)c2ccc(C#N)cc2)nc1C(=O)NS(C)(=O)=O [Compound 460, 2-[N-(1H-benzimidazol-2-ylmethyl)-4-cyano-anilino]-5-methyl-N-methylsulfonyl-thiazole-4-carboxamide] | 1260 nM
Cc1sc(N(Cc2ccccc2)c2ccc(C#N)cc2)nc1C(=O)NS(=O)(=O)CCN1C(=O)CCC1=O [Compound 383, 2-(N-benzyl-4-cyano-anilino)-N-[2-(2,5-dioxopyrrolidin-1-yl)ethylsulfonyl]-5-methyl-thiazole-4-carboxamide] | > 2000 nM
Cc1sc(N(CCn2ccnc2)c2ccc(C#N)cc2)nc1C(=O)NS(C)(=O)=O [Compound 458, 2-[4-cyano-N-(2-imidazol-1-ylethyl)anilino]-5-methyl-N-methylsulfonyl-thiazole-4-carboxamide] | > 2000 nM
Cc1sc(N(CCc2ccc(N(C)C)cc2)c2ccc(C#N)cc2)nc1C(=O)NS(C)(=O)=O [Compound 480, 2-[4-cyano-N-[2-[4-(dimethylamino)phenyl]ethyl]anilino]-5-methyl-N-methylsulfonyl-thiazole-4-carboxamide] | > 2000 nM
Cc1nc(CCN(c2ccc(C#N)cc2)c2nc(C(=O)NS(C)(=O)=O)c(C)s2)cs1 [Compound 135, 2-[4-cyano-N-[2-(2-methylthiazol-4-yl)ethyl]anilino]-5-methyl-N-methylsulfonyl-thiazole-4-carboxamide] | > 2000 nM
Cc1sc(N(c2ccc(C#N)cc2)[C@H](CO)c2ccccc2)nc1C(=O)NS(C)(=O)=O [Compound 467, 2-(4-cyano-N-[(1S)-2-hydroxy-1-phenyl-ethyl]anilino)-5-methyl-N-methylsulfonyl-thiazole-4-carboxamide] | > 2000 nM

Other lines, results leading:

EC50 | Structure (SMILES)
501 nM | Cc1sc(N(Cc2ccccc2)c2ccc(C#N)cn2)nc1C(=O)NS(C)(=O)=O [Compound 602, 2-[benzyl-(5-cyano-2-pyridyl)amino]-5-methyl-N-methylsulfonyl-thiazole-4-carboxamide]
> 2000 nM | Cc1sc(N(Cc2ccccc2)c2ccc(C#N)nc2)nc1C(=O)NS(C)(=O)=O [Compound 604, 2-[benzyl-(6-cyano-3-pyridyl)amino]-5-methyl-N-methylsulfonyl-thiazole-4-carboxamide]
> 2000 nM | Cc1sc(N(CCn2cncn2)Cc2ccccc2)nc1C(=O)NS(C)(=O)=O [Compound 680, 2-[benzyl-[2-(1,2,4-triazol-1-yl)ethyl]amino]-5-methyl-N-methylsulfonyl-thiazole-4-carboxamide]
1260 nM | Cc1sc(N(CCc2ccccc2C#N)Cc2ccccc2)nc1C(=O)NS(C)(=O)=O [Example 302, 2-[benzyl-[2-(2-cyanophenyl)ethyl]amino]-5-methyl-N-methylsulfonyl-thiazole-4-carboxamide]
501 nM | Cc1sc(N(Cc2cccc(OCCO)c2)c2ccc(C#N)cc2)nc1C(=O)NS(C)(=O)=O [Compound 587, 2-[4-cyano-N-[[3-(2-hydroxyethoxy)phenyl]methyl]anilino]-5-methyl-N-methylsulfonyl-thiazole-4-carboxamide]
1580 nM | Cc1sc(N(Cc2ccc(OCCN3CCOCC3)cc2)c2ccc(C#N)cc2)nc1C(=O)NS(C)(=O)=O [Compound 572, 2-[4-cyano-N-[[4-(2-morpholinoethoxy)phenyl]methyl]anilino]-5-methyl-N-methylsulfonyl-thiazole-4-carboxamide]
> 2000 nM | Cc1sc(N(CCc2ccc(C#N)cc2)CC2CCCCC2)nc1C(=O)NS(=O)(=O)C(F)(F)F [Compound 719, 2-[2-(4-cyanophenyl)ethyl-(cyclohexylmethyl)amino]-5-methyl-N-(trifluoromethylsulfonyl)thiazole-4-carboxamide]
79.4 nM | Cc1cccc(CN(c2ccc(C#N)cc2)c2nc(C(=O)NS(C)(=O)=O)c(Br)s2)c1 [Example 245, 5-bromo-2-[4-cyano-N-(m-tolylmethyl)anilino]-N-methylsulfonyl-thiazole-4-carboxamide]
> 2000 nM | Cc1nc(CCN(Cc2ccccc2)c2nc(C(=O)NS(C)(=O)=O)c(C)s2)cs1 [Compound 706, 2-[benzyl-[2-(2-methylthiazol-4-yl)ethyl]amino]-5-methyl-N-methylsulfonyl-thiazole-4-carboxamide]
> 2000 nM | Cc1sc(N(Cc2ncccc2OCc2ccccc2)c2ccc(C#N)cc2)nc1C(=O)NS(C)(=O)=O [Compound 490, 2-[N-[(3-benzyloxy-2-pyridyl)methyl]-4-cyano-anilino]-5-methyl-N-methylsulfonyl-thiazole-4-carboxamide]
> 2000 nM | Cc1sc(N(CCc2cccc3ccccc23)Cc2ccccc2)nc1C(=O)NS(C)(=O)=O [Example 314, 2-[benzyl-[2-(1-naphthyl)ethyl]amino]-5-methyl-N-methylsulfonyl-thiazole-4-carboxamide]
> 2000 nM | Cc1sc(N(CCC2CCNCC2)Cc2ccccc2)nc1C(=O)NS(C)(=O)=O [Compound 705, 2-[benzyl-[2-(4-piperidyl)ethyl]amino]-5-methyl-N-methylsulfonyl-thiazole-4-carboxamide]
1000 nM | Cc1sc(N(CCc2ccc3nccnc3c2)Cc2ccccc2)nc1C(=O)NS(C)(=O)=O [Compound 690, 2-[benzyl(2-quinoxalin-6-ylethyl)amino]-5-methyl-N-methylsulfonyl-thiazole-4-carboxamide]
> 2000 nM | COc1ccc(CCN(Cc2ccccc2)c2nc(C(=O)NS(C)(=O)=O)c(C)s2)cc1OC [Example 307, 2-[benzyl-[2-(3,4-dimethoxyphenyl)ethyl]amino]-5-methyl-N-methylsulfonyl-thiazole-4-carboxamide]

Reference: patent US10689354B2, “Aminoazole derivative” (Teijin Pharma Limited, priority 2015, dated 2020)
